Paper PMC11002876, “KcsA-Kv1.x chimeras with complete ligand-binding sites provide improved predictivity for screening selective Kv1.x blockers” (The Journal of Biological Chemistry, 2024)
Where a SMILES comes first, the peptide text is derived from it.

What follows are compounds tested against T1, KcsA-Kv1.2 T-only chimera (Streptomyces lividans, UniProt P0A334, R52A/G53D/A54E/P55R/G56E/A57S/L59F/I60P/T61S/Y62I/R64D) (assay: Phage ELISA-binding assay, KcsA-Kv1.2 T-only). Details: toxin displayed on M13 phage, Fig. 7C.
T1 sequence (P0A334 1-160 R52A/G53D/A54E/P55R/G56E/A57S/L59F/I60P/T61S/Y62I/R64D): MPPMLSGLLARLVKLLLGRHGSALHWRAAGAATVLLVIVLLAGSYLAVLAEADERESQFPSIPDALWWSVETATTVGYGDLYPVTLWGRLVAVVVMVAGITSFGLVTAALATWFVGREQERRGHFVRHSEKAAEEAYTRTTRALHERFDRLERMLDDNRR
Design: species or system human Kv1.2 turret in Streptomyces lividans KcsA
Experimental: Phage display test solutions were prepared according to routine phage display protocols ([62]). Phosphorylated and annealed oligonucleotides encoding the peptide construct were ligated into linearized pAS62 phagemid vector (https://patents.google.com/patent/WO2022144560A1/en) at a vector/insert ratio of 1:3. The final phagemid construct harbored a signal sequence followed by the peptide of interest, a linker sequence ([…]), and the C-terminal part of the P3 coat protein (amino acids: 216-424 of NP_510891.1). Chemically competent XL1-Blue E. coli cells (2022249, Agilent) were transformed with the ligation product and then streaked onto ampicillin (100 μg/ml) containing LB/Amp plates and incubated for 16 h at 37 °C. A few clones were sequenced, and a single colony with confirmed target sequence was inoculated into 3 ml 2 YT medium supplemented with 100 μg/ml ampicillin and incubated at 37 °C until the culture reached midlog phase. The culture was infected with M13KO7 helper phage (N0315S, New England Biolabs) (phage/cell ratio 10:1) and was incubated for 30 min at 37 °C. The 3 ml culture was transferred into 200 ml 2YT medium, supplemented with 100 μg/ml ampicillin and 25 μg/ml kanamycin, and incubated overnight at 37 °C. The overnight cell culture (200 ml) was pelleted by centrifugation at 8000g for 10 min in 400 ml centrifuge tubes at 4 °C. […] The particle concentrations of phage solutions were determined using a NanoDrop One C (Thermo Fisher Scientific) spectrophotometer. The phage particle concentration was assessed according to the formula: (A268–A320) × 5 × 10^12 particles/ml ([62]). […]
Phage stock solutions were diluted to working concentration with phage resuspension buffer supplemented with 2 mM DDM. […] Following blocking, the wells were washed 4× with washing buffer (300 μl TBS-Tween, 0.1% v/v) using a Wellwash Versa microplate washer (Thermo Fisher Scientific); then 50 μl phage solution (in TBS-BSA-Tween, 0.1% v/v, 2 mM DDM) at determined phage concentration was added to the wells and incubated for 1 h at room temperature on a horizontal shaker. […]

Question: `CC[C@H](C)[C@H](NC(=O)[C@H](CCC(=O)O)NC(=O)[C@@H](NC(=O)CN)C(C)C)C(=O)N[C@@H](CC(N)=O)C(=O)N[C@H](C(=O)N[C@@H](CCCCN)C(=O)N[C@H]1CSSC[C@@H]2NC(=O)[C@H](CCCCN)NC(=O)CNC(=O)[C@H](Cc3ccccc3)NC(=O)[C@H](CCCNC(=N)N)NC(=O)[C@H](CCSC)NC(=O)CNC(=O)[C@H](C)NC(=O)[C@H](CC(=O)O)NC(=O)[C@H](CCCCN)NC(=O)[C@@H]3CSSC[C@@H](C(=O)N[C@H](C(=O)N4CCC[C@H]4C(=O)N[C@@H](CCCCN)C(=O)O)[C@@H](C)O)NC(=O)[C@H](Cc4c[nH]cn4)NC(=O)[C@H](CSSC[C@H](NC(=O)[C@H](CCC(N)=O)NC(=O)[C@@H]4CCCN4C(=O)[C@H](CO)NC(=O)CNC(=O)[C@H](CO)NC1=O)C(=O)N[C@@H](CC(C)C)C(=O)N[C@@H](CCCCN)C(=O)N1CCC[C@H]1C(=O)N3)NC(=O)[C@H](CCCCN)NC(=O)[C@H](CCCNC(=N)N)NC(=O)[C@H](CC(N)=O)NC(=O)[C@H](CCSC)NC2=O)C(C)C` [KTX1, Kaliotoxin-1] was tested. Which “phage binding to KcsA-Kv1.2 T-only, in words” value (“phage binding” below) did it give?
Answer: inconsistent with their published channel blocking potencies

Question: How did the “phage binding” value turn out when `CC[C@H](C)[C@@H]1NC(=O)[C@@H]2CSSC[C@H](NC(=O)[C@H](CO)NC(=O)[C@@H](N)C(C)C)C(=O)N[C@@H]([C@@H](C)O)C(=O)NCC(=O)N[C@@H](CO)C(=O)N[C@@H](CCCCN)C(=O)N[C@@H](CC(=O)O)C(=O)N[C@@H](CSSC[C@@H](C(=O)N[C@@H](CCCCN)C(=O)N[C@H]3CSSC[C@@H](C(N)=O)NC(=O)CNC(=O)[C@H](Cc4ccc(O)cc4)NC3=O)NC(=O)[C@H](CO)NC(=O)[C@H](CCCCN)NC(=O)[C@H](CC(N)=O)NC1=O)C(=O)N[C@@H](Cc1ccc(O)cc1)C(=O)N[C@@H](C)C(=O)N1CCC[C@H]1C(=O)N[C@H]1CSSC[C@H](NC(=O)CNC(=O)[C@H]([C@@H](C)O)NC(=O)[C@H](CCC(N)=O)NC(=O)[C@H](CCCCN)NC(=O)[C@H](CCCNC(=N)N)NC1=O)C(=O)N1CCC[C@H]1C(=O)N[C@@H](CC(N)=O)C(=O)N[C@@H](C)C(=O)N[C@@H](CCCCN)C(=O)N2` [MTX, Maurotoxin] (HELM PEPTIDE1{V.S.C.T.G.S.K.D.C.Y.A.P.C.R.K.Q.T.G.C.P.N.A.K.C.I.N.K.S.C.K.C.Y.G.C.[am]}$PEPTIDE1,PEPTIDE1,3:R3-24:R3|PEPTIDE1,PEPTIDE1,9:R3-29:R3|PEPTIDE1,PEPTIDE1,13:R3-19:R3|PEPTIDE1,PEPTIDE1,31:R3-34:R3$$$V2.0; N-terminus and C-terminus assumed) was run?
Answer: negligible binding

Question: With `CC[C@H](C)[C@@H]1NC(=O)[C@@H](NC(=O)[C@H](CO)NC(=O)[C@@H](N)CCCNC(=N)N)CSSC[C@@H](C(=O)O)NC(=O)[C@H]([C@@H](C)O)NC(=O)CNC(=O)[C@@H]2CSSC[C@@H]3NC(=O)[C@H](CCC(N)=O)NC(=O)[C@H](Cc4ccccc4)NC(=O)[C@H](C)NC(=O)[C@H]([C@@H](C)O)NC(=O)[C@H](CSSC[C@H](NC(=O)[C@H](Cc4ccccc4)NC(=O)[C@H](CO)NC(=O)[C@H](CC(C)C)NC(=O)[C@H](CCCNC(=N)N)NC(=O)[C@H](Cc4ccc(O)cc4)NC(=O)[C@H](CCCCN)NC(=O)[C@H](CCSC)NC(=O)[C@H](CO)NC(=O)[C@H](Cc4c[nH]cn4)NC(=O)[C@H](CCCCN)NC3=O)C(=O)N[C@@H](CCCNC(=N)N)C(=O)N[C@@H](CCCCN)C(=O)N[C@@H]([C@@H](C)O)C(=O)N2)NC(=O)[C@H](CCCNC(=N)N)NC(=O)[C@H](CO)NC(=O)[C@H](CCCCN)NC(=O)[C@@H]2CCCN2C(=O)[C@H]([C@@H](C)CC)NC(=O)[C@H]([C@@H](C)O)NC(=O)[C@H](CC(=O)O)NC1=O` [ShK, Stichodactyla toxin] as the compound, how does the “phage binding” value read?
Answer: inconsistent with their published channel blocking potencies
